From patent US6706517B2, “Method for producing L-amino acids by fermentation” (priority 1999, dated 2004)
Structures can show the parent of a compound that is named as a salt.

Legend:
Type in all cases: cell-based
Conditions in all cases: 33° C., 4 days
[1] = tested on: Escherichia coli H-9342; test: Comparative test of growth on agar plate medium containing primaquine or novobiocin, mutant strain H-9342
Experimental: (§1) Preparation of an L-histidine-producing mutant strain having resistance to a DNA gyrase inhibitor or an L-histidine-producing mutant strain having both resistance to a DNA gyrase inhibitor and resistance to an aminoquinoline derivative The L-histidine-producing mutant strain H-9340 having resistance to 1,2,4-triazole alanine, which was derived from methionine-requiring Escherichia coli ATCC 21318 was subjected to a mutation treatment with N-methyl-N′-nitro-N-nitrosoguanidine (NTG) (0.2 mg/ml, 30° C., 30 minutes) according to a conventional method and spread on a 1 g/liter noboviocin monosodium salt-containing agar plate medium [0.2% glucose, 0.3% potassium dihydrogen phosphate, 0.6% disodium hydrogen phosphate, 0.01% magnesium sulfate, 0.05% sodium chloride, 0.1% ammonium chloride, 50 mg/liter required nutrient (DL-methionine) and 1.5% agar, pH 7.2].
The mutant strain was cultured on the agar plate medium at 30° C. for 2 to 6 days, and the growing large colonies were picked up and separated to obtain the strain H-9342.
(§2) Comparative test of growth on agar plate culture medium containing primaquine or novobiocin
(§3) The growth of the mutant strains H-9342 and H-9343 obtained in Example 1 was compared with the growth of the parent strain H-9340 on an agar plate medium containing primaquine or novobiocin.
(§4) Each of the mutant strains, which had been cultured in a natural medium for 24 hours and suspended in physiological saline, was spread at a cell density of 1 to 10 cells/cm^2 on the agar plate medium containing primaquine disodium salt or novobiocin monosodium salt at the same concentration as that at the time of acquisition of each mutant strain, and cultured at 33° C. for 4 days.

[2] = tested on: Escherichia coli H-9340; test: Comparative test of growth on agar plate medium containing primaquine or novobiocin, parent strain H-9340
Experimental: as §1, §2
The growth of the mutant strains H-9342 and H-9343 obtained in Example 1 was compared with the growth of the parent strain H-9340 on an agar plate medium containing primaquine or novobiocin. […]

[3] = tested on: Escherichia coli H-9343; test: Comparative test of growth on agar plate medium containing primaquine or novobiocin, mutant strain H-9343
Experimental: Furthermore, the obtained colony was subjected to a mutation treatment with NTG (0.2 mg/ml, 30° C., 30 minutes), followed by spreading on an agar plate culture medium containing 150 mg/liter primaquine disodium salt. Culturing was carried out thereon at 30° C. for 2 to 6 days, and growing large colonies were picked up and separated to obtain the strain H-9343. The strains H-9340, H-9342 and H-9343 were deposited on March 9, 1999 with the National Institute of Bioscience and Human-Technology, Agency of Industrial Science and Technology (1-3, Higashi 1-chome, Tsukuba-shi, Ibaraki-ken, Japan) under the Budapest Treaty with accession Nos. FERM BP-6673, FERM BP-6675 and FERM BP-6676, respectively.
as §2, §3, §4

[4] = 1 g/liter novobiocin monosodium salt in agar medium
[5] = 150 mg/liter primaquine disodium salt in agar medium

Structure (SMILES)	Growth or non-growth on agar plate medium [1, 4]	Growth or non-growth on agar plate medium [2, 4]	Growth or non-growth on agar plate medium [3, 4]	Growth or non-growth on agar plate medium [1, 5]	Growth on the primaquine-containing culture medium (in words) ([1]; primaquine-containing agar medium)	Growth or non-growth on agar plate medium [2, 5]	Growth or non-growth on agar plate medium [3, 5]
CO[C@@H]1[C@@H](OC(N)=O)[C@@H](O)[C@H](Oc2ccc3c(O)c(NC(=O)c4ccc(O)c(CC=C(C)C)c4)c(=O)oc3c2C)OC1(C)C [Novobiocin monosodium salt, novobiocin monosodium salt]	+	−	+				
COc1cc(NC(C)CCCN)c2ncccc2c1 (stereo not shown) [Primaquine disodium salt, primaquine disodium salt]				−	did not grow	−	+
